{"source": "patent US9816994B2", "about": "“Method for treating a blood component containing sample” (ARKRAY, Inc., priority 2012, dated 2017)", "key": {"erythrocytes": {"tested_on": "erythrocytes", "experiment": "Measurement of lysis time of erythrocytes (absorbance at 650 nm, micro-plate reader)", "format": "cell-based, human", "description": "As a sample containing erythrocytes, blood that had been collected from a vein of a healthy person by use of a vacuum blood-collecting vessel (EDTA including 2K) was used. 30 μL of the sample containing the blood was dispensed onto a 96-well microplate, in which 30 μL of the aqueous solution of surfactant was mixed and stirred five times with pipetting, thereby allowing the reaction solution to react homogeneously. The absorbance was measured every one minute with a micro-plate reader. The moment at which the absorbance became 0.5 or lower at a wavelength of 650 nm was determined as the lysis of the blood cells. The results are shown in Table 3 below (Examples 1 and 2). In Examples 1 and 2, the absorbance reached 0.5 within the time period from 30 minutes to 60 minutes after starting the measurement. On the other hand, in Comparative Example 9 where the aqueous solution of the surfactant was replaced by distilled water, the absorbance did never reach 0.5 even 60 minutes after from the start of the measurement. The micro-plate reader used herein was Thermo Labsystems Multiskan Ascent 35 manufactured by Thermo Labsystems."}, "[1]": {"tested_on": "PC3 prostate cancer cells", "experiment": "Assessment of damage to cancer cells (trypan blue survival rate), PC3", "format": "cell-based, human", "conditions": "10 minutes after a contact with surfactant, 2.5 w/v %", "description": "(§1) Cells of SNU-1, MCF-7, SW620, PC3, and NCI-358 derived from gastric cancer, breast cancer, large intestinal cancer, prostate cancer, and lung cancer were prepared to be 2×10^6 Cells/ml and used. The cancer cells were prepared in the following manner. 50 μL of a cancer cell suspension in the serum-including medium and 50 μL of the aqueous solution of the surfactant were added into the 1.5 ml microcentrifuge tube, stirred with pipetting so as to make the solution homogeneous. Later, the solution was allowed to stand at an ambient temperature of 23° C. for about 10 minutes so as to proceed the reaction. Then, the reaction liquid in the microcentrifuge tube was stirred with pipetting so as to disperse the cells, and subsequently, 50 μL of the liquid was dispensed into another microcentrifuge tube and 50 μL of 0.4% trypan blue stain solution (Invitrogen) was mixed therein. This was injected into a counting chamber so as to count living cells that had not been stained with the trypan blue. Provided that the number of cells in a reaction liquid to which distilled water had been added in place of the reagent being 100%, the survival rate was calculated from the number of cells survived 10 minutes after (Example 1) and 30 minutes after (Example 2) from the reaction with the aqueous solution of the surfactant. […]"}, "[2]": {"tested_on": "NCI-H358 lung cancer cells", "experiment": "Assessment of damage to cancer cells (trypan blue survival rate), NCI-H358", "format": "cell-based, human", "conditions": "10 minutes after a contact with surfactant, 2.5 w/v %", "description": "as §1"}, "[3]": {"tested_on": "MCF-7 breast cancer cells", "experiment": "Assessment of damage to cancer cells (trypan blue survival rate), MCF-7", "format": "cell-based, human", "conditions": "10 minutes after a contact with surfactant, 2.5 w/v %", "description": "as §1"}, "[4]": {"tested_on": "SNU-1 gastric cancer cells", "experiment": "Assessment of damage to cancer cells (trypan blue survival rate), SNU-1", "format": "cell-based, human", "conditions": "10 minutes after a contact with surfactant, 2.5 w/v %", "description": "as §1, with “Then, the reaction liquid in the microcentrifuge tube was stirred with pipetting so as to disperse the cells, and subsequently, 50 μL of the liquid was dispensed into another microcentrifuge tube and 50 μL of 0.4% trypan blue stain solution (Invitrogen) was mixed therein. This was injected into a counting chamber so as to count living cells that had not been stained with the trypan blue.” left out\nA mixture of the surfactant No. 1 and either the surfactant No. 2 or No. 3 was prepared at a mixing ratio of 10:0 to 0:10 (weight ratio: the total concentration of the surfactants was 2.5 w/v %). […] The survival rate was calculated from the number of cells survived after the reaction with the mixture of surfactants, provided that the number of cells in a reaction liquid to which distilled water had been added in place of the reagent being 100%. […]"}, "leukocytes": {"tested_on": "leukocytes", "experiment": "Assessment of damage to leukocytes (trypan blue survival rate)", "format": "cell-based", "description": "Leukocytes were separated from 10 ml of fresh blood in accordance with HetaSep protocol (manufactured by STEMCELL (trade name) Technologies), which was suspended in 1 ml of PBS(−) and collected in a 1.5 ml disposable microtube (a microcentrifuge tube with trade name of DSP-MC-15A manufactured by Nichiryo Co., Ltd.). Since a small amount of erythrocytes were still included in the separated leukocytes, the erythrocytes were eliminated by using ammonium chloride (supplied by STEMCELL (trade name) Technologies) in accordance with the attached document, and the leukocytes were collected through centrifugation, washed in PBS(−), and then suspended in 1 ml of a serum-including medium. 50 μL of leukocyte suspension in the serum-including medium and 50 μL of the aqueous solution of the surfactant were mixed in the 1.5 ml microcentrifuge tube, and the mixed solution was stirred with pipetting about five times so that the solution would be homogeneous. […] Provided that the number of cells in a reaction liquid to which distilled water had been added in place of the reagent being 100%, the survival rate was calculated from the number of cells survived 10 minutes after (Example 1) and 30 minutes after (Example 2) from the reaction with the aqueous solution of surfactant."}, "[5]": {"tested_on": "SW620 large intestinal cancer cells", "experiment": "Assessment of damage to cancer cells (trypan blue survival rate), SW620", "format": "cell-based, human", "conditions": "10 minutes after a contact with surfactant, 2.5 w/v %", "description": "as §1"}}, "data": [{"substance": "polyoxyethylene octyl dodecylether (EO=25) [Surfactant No. 1]", "values": [{"measurement": "Lysis time to reach absorbance of 0.5", "setting": "erythrocytes; surfactant (2.5 w/v %), mixing ratio 2:8 (No. 1 is 80%)", "result": "30 to 60", "unit": "min"}, {"measurement": "Lysis time to reach absorbance of 0.5", "setting": "erythrocytes; surfactant used alone, preparation concentration 2.5 w/v %", "result": "30 to 60", "unit": "min"}, {"measurement": "Cancer cell survival rate (%) PC3-9 Prostate cancer", "setting": "[1]", "result": 101.8, "unit": "%"}, {"measurement": "Cancer cell survival rate (%) MCI-358 Lung cancer", "setting": "[2]", "result": 89.9, "unit": "%"}, {"measurement": "Cancer cell survival rate (%) MCF-7 Breast cancer", "setting": "[3]", "result": 112.3, "unit": "%"}, {"measurement": "Cancer cell survival rate (%) SNU-1 Gastric cancer", "setting": "[4]", "result": 86.1, "unit": "%"}, {"measurement": "selectivity of lowering survival rate, leukocytes against cancer cells", "setting": "leukocytes; 2.5 w/v % aqueous solution, 10 and 30 minutes", "result": "lower selectively the survival rate of the leukocytes rather than cancer cells"}, {"measurement": "Leukocyte survival rate (%)", "setting": "leukocytes; 10 minutes after contact, 2.5 w/v %, 23° C., distilled water = 100%", "result": 71.8, "unit": "%"}, {"measurement": "Cancer cell survival rate (%) SW620 Large intestinal cancer", "setting": "[5]", "result": 81, "unit": "%"}]}]}
